Experimental data from publication PMC3085948 (Journal of medicinal chemistry, 2011).

Key:
[1] = system: endogenous lipid amide levels (anandamide, PEA, OEA, 2-AG, arachidonic acid); conditions: for effect on endogenous levels of 2-AG / effect on endogenous levels of arachidonic acid / effect on endogenous levels of key lipid amides (anandamide, PEA) / site of effect on lipid levels (brain vs liver): 30 mg/kg i.p., single mouse; for brain lipid amide levels, oral versus intraperitoneal dosing: p.o. 50 mg/kg vs i.p. 30 mg/kg, 3 mice per group
FAAH knockout mice = conditions: cited from earlier work
[2] = in vivo; cited from earlier work
[3] = system: cannabinoid (CB1 or CB2) or vanilloid receptors; conditions: background statement; cited from earlier work
[4] = Rat or human liver microsome stability; conditions: rat, human, microsomes
human FAAH = experiment: FAAH inhibition, human FAAH from transfected COS-7 cells; format: biochemical; conditions: active (S)-enantiomers; hFAAH vs rFAAH
[5] = system: common P450 metabolism enzymes; conditions: background statement; cited from earlier work
[6] = system: human ether-a-go-go related gene (hERG); conditions: background statement; cited from earlier work
acute thermal pain = format: in vivo, mice; conditions: i.v. administration
[7] = format: in vivo; conditions: 50 mg/kg oral, data not shown
[8] = system: chronic constriction injury (CCI) neuropathic pain; experiment: CCI mechanical allodynia; format: in vivo, mice; conditions: 50 mg/kg p.o.
rat FAAH = molecular target: T1, rat FAAH (Rattus norvegicus, UniProt P97612); format: biochemical
T1 sequence (P97612 30-579 limits assumed): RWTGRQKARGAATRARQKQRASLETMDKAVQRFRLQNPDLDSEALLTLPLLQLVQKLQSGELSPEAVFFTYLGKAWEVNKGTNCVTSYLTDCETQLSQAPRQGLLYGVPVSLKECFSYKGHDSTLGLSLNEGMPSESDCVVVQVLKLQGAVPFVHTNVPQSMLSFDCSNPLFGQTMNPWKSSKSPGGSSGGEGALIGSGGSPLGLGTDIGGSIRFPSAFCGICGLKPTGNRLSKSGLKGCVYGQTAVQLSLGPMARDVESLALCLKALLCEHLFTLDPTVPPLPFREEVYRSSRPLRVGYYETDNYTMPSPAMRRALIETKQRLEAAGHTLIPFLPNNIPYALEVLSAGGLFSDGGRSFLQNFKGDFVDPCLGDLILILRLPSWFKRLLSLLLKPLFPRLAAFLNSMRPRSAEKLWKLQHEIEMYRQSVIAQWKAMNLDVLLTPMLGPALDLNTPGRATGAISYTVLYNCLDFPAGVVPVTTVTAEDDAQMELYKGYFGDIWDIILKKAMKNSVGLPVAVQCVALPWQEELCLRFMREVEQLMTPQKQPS

[9] = system: chronic constriction injury (CCI) neuropathic pain; experiment: CCI acetone-induced cold allodynia; format: in vivo, mice; conditions: 50 mg/kg p.o.

SMILES	effect on endogenous levels of 2-AG ([1]; 1 h)	effect on endogenous levels of arachidonic acid ([1]; 1 h)	effect on endogenous levels of key lipid amides (anandamide, PEA) ([1]; 1 h)	half-life [4] [min]	activity against human versus rat FAAH (human FAAH)	duration of effect (acute thermal pain) [min]	site of effect on lipid levels (brain vs liver) ([1]; 1 h)	brain lipid amide levels, oral versus intraperitoneal dosing [1]	mode of inhibition (Lineweaver–Burk analysis) (rat FAAH)	also measured
O=C(c1ncc(-c2ccccn2)o1)C1Cc2ccc(Oc3ccccc3)cc2C1 (stereo not shown) [Compound 27]	without impacting	minimal impact	increased							
O=C(CCCCCCc1ccccc1)c1ncc(-c2ccccn2)o1 [Compound 2]				2 to 4	no significant distinction					antinociception in FAAH knockout mice (FAAH knockout mice): does not produce antinociception; time to establish ketone/alcohol steady state equilibrium [2]: ≤ 15 min; binding to cannabinoid (CB1 or CB2) or vanilloid receptors [3]: does not bind; inhibition of common P450 metabolism enzymes [5]: does not significantly inhibit; inhibition of hERG [6]: does not significantly inhibit
O=C(c1ncc(-c2ccccn2)o1)C1CCc2cc(OCc3ccccc3)ccc2C1 (stereo not shown) [Compound 18]				12 to 15						
CN1CC[C@]23c4c5ccc(O)c4O[C@H]2[C@@H](O)C=C[C@H]3[C@H]1C5 [morphine, reference compound]						150				
O=C(c1ncc(-c2ccccn2)o1)C1CCc2cc(Oc3ccccc3)ccc2C1 (stereo not shown) [Compound 12, (6-Phenoxy-1,2,3,4-tetrahydronaphthalen-2-yl)(5-(pyridin-2-yl)oxazol-2-yl)methanone]	without impacting	minimal impact	increased		no significant distinction		observed both in the brain (CNS) and liver (peripheral)	matched and even improved on the results observed with i.p. administration	reversible, competitive inhibitors	cannabimimetic side effects [7]: did not produce catalepsy, hypothermia, or hypomotility; duration of effect on mechanical allodynia [8]: > 6 h; mechanical allodynia, control paws [8]: no effect; mechanical allodynia, paws ipsilateral to CCI surgery [8]: significantly attenuated; time of peak brain anandamide levels ([1]; 50 mg/kg p.o.): 1.5 to 3 h; duration of elevation of brain N-acylethanolamines ([1]; 50 mg/kg p.o., time course up to 9 h): ≥ 9 h; increase in brain levels of PEA and OEA ([1]; p.o. 10, 25 and 50 mg/kg, 1 h): 5.5–7.8 fold; increase in brain anandamide levels ([1]; p.o. 25–50 mg/kg, 1 h): 12–13 fold; cold allodynia, control paws [9]: no effect; cold allodynia, paws ipsilateral to CCI surgery [9]: significantly attenuated; duration of effect on cold allodynia [9]: > 9 h
O=C(O)c1cccc(-c2cnc(C(=O)C3CCc4cc(Oc5ccccc5)ccc4C3)o2)n1 (stereo not shown) [Compound 14, 6-(2-(6-Phenoxy-1,2,3,4-tetrahydronaphthalene-2-carbonyl)oxazol-5-yl)picolinic Acid]					4 fold	150	principally seen peripherally (liver)	matched and even improved on the results observed with i.p. administration	reversible, competitive inhibitors	time of maximal effect (acute thermal pain): 30 to 60 min; maximal antinociceptive effect (efficacy) (acute thermal pain; tail flick 52 °C): same maximal effect (efficacy) observed with morphine
